Reference: patent publication US20230248660A1 (Intelgenx Corp., priority 2016, published 2023)

Key:
Porcine buccal mucosa = test: Loxapine diffusion through Porcine buccal mucosa (Franz cell); settings: penetration enhancer in loxapine oral film, permeation through the mucosa
Description: FIG. 1 graphically depicts 1 oxapine film diffusion through Porcine buccal mucosa (48-hrs-old unfrozen fresh mucosa) (Franz cell 1.76 cm2; 37° C.); saliva pH 6.8.
FIG. 2 graphically depicts 1 oxapine film diffusion through Porcine buccal mucosa (26-hrs-old unfrozen fresh mucosa) (Franz cell 1.76 cm2; 37° C.); saliva pH 6.8.
FIG. 3 graphically depicts 1 oxapine Solutions-diffusion through Porcine buccal mucosa (fresh mucosa kept at 4C for 48 hours) (Franz cell 1.76 cm2; 37° C.); saliva pH 6.8.
These penetration enhancers include sulphoxides (dimethylsulphoxide, decylmethyl sulfoxide), azones (laurocapram), pyrrolidones (2pyrrolidone, 2P), alcohols/alkanols (ethanol or decanol), glycols (propylene glycol), surfactants (anionic, sodium lauryl sulfate, sodium decyl sulfate), (Nonionic, Tween, PLE), (Cationic, chitosan, cetylpyridinium chloride), terpenes (1,8-cineole, menthol, and menthone, D-limonene), fatty acids (oleic acid, sodium caprate), and bile salts (sodium deoxycholate, sodium deoxyglycocholate).

[1] = at or near neutral pH; cited from earlier work

Molecule	Effect on loxapine absorption/permeation (Porcine buccal mucosa)	other results
CCCCCCCCCCCCOS(=O)(=O)[O-].[Na+] [Sodium lauryl sulphate (SLS), Sodium lauryl sulphate]		Effect on loxapine absorption/permeation (Porcine buccal mucosa; listed as SLS, sulphate): reduce absorption/permeation; Effect on loxapine absorption/permeation (Porcine buccal mucosa; sulphate): negative effect(−)
O=C(O)CN(CCN(CC(=O)O)CC(=O)O)CC(=O)O.[Ca].[Na].[Na] [Ethylenediaminetetraacetic acid calcium disodium]	no effect	
Sodium deoxycholate	positif effect (+)	
CCCCCCCCCCCCCCCC[n+]1ccccc1 [Cetylpyridinium chloride]	no effect	
CN1CCN(C2=Nc3ccccc3Oc3ccc(Cl)cc32)CC1 [loxapine, 2-chloro-11-(4-methylpiperazin-1-yl) dibenzo[b,f] [1,4] loxazepine]		solubility of loxapine [1]: especially low
C=C(C)[C@@H]1CC=C(C)CC1 [(S)-(−)-Limonene]	positif effect (+)	
